# Laboratory results from the supplement of paper PMC10307832.
# Key:
# Assay in all cases: relative viability (nuclei count vs DMSO), 5 days (fraction); higher = more cells survive
# Silmitasertib + Olaparib = compound: O=C(O)c1ccc2c(c1)nc(Nc1cccc(Cl)c1)c1ccncc12 [Silmitasertib] + O=C(c1cc(Cc2n[nH]c(=O)c3ccccc23)ccc1F)N1CCN(C(=O)C2CC2)CC1 [Olaparib] (partner 8 µM)
# Outline: (§1)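 Lung cancer cell lines in 1536-well plates got either a single drug or a fixed anchor-drug dose together with five library-drug doses (not always all listed) in √10 steps, by pin tool, on the day after seeding. Nuclei were counted after 5 days, and relative viability is the treated-to-vehicle ratio of nuclei counts. Values are medians of duplicate plates.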
# [1] = compound: O=C(O)c1ccc2c(c1)nc(Nc1cccc(Cl)c1)c1ccncc12 [Silmitasertib] + CS(=O)(=O)N1CCN(Cc2cc3nc(-c4cccc5[nH]ncc45)nc(N4CCOCC4)c3s2)CC1 [Pictilisib] (partner 1 µM)
# Outline: as §1
# [2] = compound: O=C(O)c1ccc2c(c1)nc(Nc1cccc(Cl)c1)c1ccncc12 [Silmitasertib] + CC(=O)Nc1cccc(-n2c(=O)n(C3CC3)c(=O)c3c(Nc4ccc(I)cc4F)n(C)c(=O)c(C)c32)c1 [Trametinib] (partner 0.02 µM)
# Outline: as §1
# [3] = compound: O=C(O)c1ccc2c(c1)nc(Nc1cccc(Cl)c1)c1ccncc12 [Silmitasertib] + C[C@@H](Oc1cc(-c2cnn(C3CCNCC3)c2)cnc1N)c1c(Cl)ccc(F)c1Cl [Crizotinib] (partner 1 µM)
# Outline: as §1
# Silmitasertib + AZD7762 = compound: O=C(O)c1ccc2c(c1)nc(Nc1cccc(Cl)c1)c1ccncc12 [Silmitasertib] + NC(=O)Nc1cc(-c2cccc(F)c2)sc1C(=O)N[C@H]1CCCNC1 [AZD7762] (partner 0.2 µM)
# Outline: as §1
cell line,measurement,setting,value
NCI-H650,relative viability,Silmitasertib + Olaparib; first compound 0.04 µM,0.4
same,relative viability,Silmitasertib + Olaparib; first compound 0.4 µM,0.232
same,relative viability,Silmitasertib + Olaparib; first compound 1.265 µM,0.317
same,relative viability,Silmitasertib + Olaparib; first compound 4 µM,0.294
same,relative viability,[1]; first compound 0.04 µM,1.08
same,relative viability,[1]; first compound 0.4 µM,0.817
same,relative viability,[1]; first compound 1.265 µM,0.614
same,relative viability,[1]; first compound 4 µM,0.75
same,relative viability,[2]; first compound 0.04 µM,1.01
same,relative viability,[2]; first compound 0.4 µM,0.567
same,relative viability,[2]; first compound 1.265 µM,0.666
same,relative viability,[2]; first compound 4 µM,1.21
same,relative viability,[3]; first compound 0.04 µM,0.79
same,relative viability,[3]; first compound 0.4 µM,0.502
same,relative viability,[3]; first compound 1.265 µM,0.463
same,relative viability,[3]; first compound 4 µM,0.378
same,relative viability,Silmitasertib + AZD7762; first compound 0.04 µM,1.17
same,relative viability,Silmitasertib + AZD7762; first compound 0.4 µM,0.524
same,relative viability,Silmitasertib + AZD7762; first compound 1.265 µM,0.907
same,relative viability,Silmitasertib + AZD7762; first compound 4 µM,0.982
LCLC-103H,relative viability,Silmitasertib + Olaparib; first compound 0.04 µM,0.817
same,relative viability,Silmitasertib + Olaparib; first compound 0.4 µM,0.719
same,relative viability,Silmitasertib + Olaparib; first compound 1.265 µM,0.641
same,relative viability,Silmitasertib + Olaparib; first compound 4 µM,0.664
same,relative viability,[1]; first compound 0.04 µM,0.578
same,relative viability,[1]; first compound 0.4 µM,0.702
same,relative viability,[1]; first compound 1.265 µM,0.565
same,relative viability,[1]; first compound 4 µM,0.446
same,relative viability,[2]; first compound 0.04 µM,0.689
same,relative viability,[2]; first compound 0.4 µM,0.71
same,relative viability,[2]; first compound 1.265 µM,0.648
same,relative viability,[2]; first compound 4 µM,0.636
same,relative viability,[3]; first compound 0.04 µM,1.03
same,relative viability,[3]; first compound 0.4 µM,1.06
same,relative viability,[3]; first compound 1.265 µM,1
same,relative viability,[3]; first compound 4 µM,0.713
same,relative viability,Silmitasertib + AZD7762; first compound 0.04 µM,0.839
same,relative viability,Silmitasertib + AZD7762; first compound 0.4 µM,0.803
same,relative viability,Silmitasertib + AZD7762; first compound 1.265 µM,0.759
same,relative viability,Silmitasertib + AZD7762; first compound 4 µM,0.588
PC-14,relative viability,Silmitasertib + Olaparib; first compound 0.04 µM,0.346
same,relative viability,Silmitasertib + Olaparib; first compound 0.4 µM,0.163
same,relative viability,Silmitasertib + Olaparib; first compound 1.265 µM,0.34
same,relative viability,Silmitasertib + Olaparib; first compound 4 µM,0.272
same,relative viability,[1]; first compound 0.04 µM,0.629
same,relative viability,[1]; first compound 0.4 µM,0.661
same,relative viability,[1]; first compound 1.265 µM,0.566
same,relative viability,[1]; first compound 4 µM,0.646
same,relative viability,[2]; first compound 0.04 µM,1.07
same,relative viability,[2]; first compound 1.265 µM,0.802
same,relative viability,[2]; first compound 4 µM,0.633
same,relative viability,[3]; first compound 0.04 µM,0.932
same,relative viability,[3]; first compound 0.4 µM,0.897
same,relative viability,[3]; first compound 1.265 µM,0.888
same,relative viability,[3]; first compound 4 µM,0.847
same,relative viability,Silmitasertib + AZD7762; first compound 0.04 µM,0.336
same,relative viability,Silmitasertib + AZD7762; first compound 1.265 µM,0.399
same,relative viability,Silmitasertib + AZD7762; first compound 4 µM,0.321
NCI-H1915,relative viability,Silmitasertib + Olaparib; first compound 0.04 µM,0.262
same,relative viability,Silmitasertib + Olaparib; first compound 1.265 µM,0.263
same,relative viability,Silmitasertib + Olaparib; first compound 4 µM,0.201
same,relative viability,[1]; first compound 0.04 µM,1.02
same,relative viability,[1]; first compound 1.265 µM,0.956
same,relative viability,[1]; first compound 4 µM,0.408
same,relative viability,[2]; first compound 0.04 µM,0.334
same,relative viability,[2]; first compound 1.265 µM,0.304
same,relative viability,[2]; first compound 4 µM,0.254
same,relative viability,[3]; first compound 0.04 µM,0.888
same,relative viability,[3]; first compound 1.265 µM,0.931
same,relative viability,[3]; first compound 4 µM,0.718
same,relative viability,Silmitasertib + AZD7762; first compound 0.04 µM,0.752
same,relative viability,Silmitasertib + AZD7762; first compound 1.265 µM,0.77
same,relative viability,Silmitasertib + AZD7762; first compound 4 µM,0.535
